{
  "source": "patent US20160088853A1",
  "about": "“Ultraviolet Disinfection of Produce, Liquids and Surfaces” (DREXEL UNIVERSITY, priority 2013, published 2016)",
  "key": {"[1]": {"system": "bacterial and fungal strains", "settings": "riboflavin with UV 365 nm, artificial surface; cited from earlier work"}, "E. coli 0157:H7": {"system": "E. coli 0157:H7", "settings": "in lettuce; cited from earlier work"}, "E. coli BL-21": {"system": "E. coli BL-21", "assay": "UV inactivation of E. coli BL-21 suspension, plate count", "type": "cell-based", "settings": "1% (w/v) gallic acid, UV 10 seconds, 109 CFU/mL in phosphate buffer, FIG. 6", "description": "E. coli BL-21 was suspended in phosphate buffer at the level of 10^9 CFU/mL. Gallic acid was incorporated into bacterial suspension at the level of 1% (w/v). This suspension was exposed to UV light (intensity of 4 mJ/cm^2) for 10 seconds. The control experiment was performed in the exact same manner except for addition of gallic acid. After UV treatment, the cells were separated from the buffer through centrifugation and bacterial inactivation was measured using a plate count technique."}, "[2]": {"settings": "for fluorescence decay rate constant: 1 μM fluorescein, UV; for change in relative fluorescence intensity: 12 minutes of UV exposure", "description": "In this example, fluorescein dye was used to detect the presence of free radicals, since interactions of oxidizing free radicals with fluorescein quench the fluorescence signal intensity. A fluorescein dye solution (4 μg/L) containing 0.4% (w/v) fructose and a fluorescein dye solution (4 μg/L) without fructose (control) were exposed to UV radiation at wavelength of 254 nm.\nA batch-UV processing unit (Spectronics Spectrolinker XL-1500 UV Crosslinker, Westbury, N.Y.) was used for Examples 5-10. The apparatus consisted of 5 UV lamps (254 nm, 15 W, Spectronics Corporation, Westbury, N.Y.) that generated a UV intensity of approximately 20 mW/cm^2 at the surface of exposure mounted within a shielded box (46.4×15.9×31.8 cm). Fluorescence intensity measurement noise was minimized by allowing the lamps to warm up for at least 15 minutes prior to taking measurements.\nThe test fluorescein solution with approximately 1 μM fluorescein was prepared in deionized water (pH 6.3) or 100 mM buffer at pH 6. […] Specifically, treatments were carried out by adding a 10.0 ml solution into an uncovered glass petri dish and exposing it to UV radiation for various amounts of time (0-12 minutes) in the UV processing unit. The samples in the petri dish were stirred to achieve uniform exposure to UV light. Ambient room temperature (20-22° C.) was used for the treatments. To measure the fluorescence intensity of the solution, at each time interval, 100 μl of the sample was pipetted from the petri dish into a well of a 96-well plate optimized for fluorescence measurement. Fluorescence was measured in a Gemini XPS fluorescence micro-plate reader (Molecular Devices, Sunnyvale, Calif.) with excitation and emission wavelengths of 485 nm and 510 nm, respectively. All the fluorescence values were normalized using Eq. (1):\nwhere I0=fluorescence intensity at time t=0 minutes and It=fluorescence intensity after ‘t’ minutes of UV exposure."}, "[3]": {"assay": "Solution absorbance at 254 nm", "type": "physicochemical"}, "[4]": {"settings": "in the presence of fructose, model apple juice system; cited from earlier work"}},
  "note": "Like-named read-outs stand apart in the source and are kept apart here.",
  "data": [
    {"compound": "Cc1cc2nc3c(=O)[nH]c(=O)nc-3n(C[C@H](O)[C@H](O)[C@H](O)CO)c2cc1C", "note": "[Riboflavin]", "values": [
      {"measurement": "inactivation of bacterial and fungal strains", "setting": "[1]", "value": "effective in inactivating most of the bacterial and fungal strains"}
    ]},
    {"compound": "Acidified sodium chlorite", "values": [
      {"measurement": "reduction of E. coli 0157:H7", "setting": "E. coli 0157:H7", "value": "≤ 5", "unit": "log"}
    ]},
    {"compound": "O=C(O)c1cc(O)c(O)c(O)c1", "note": "[gallic acid, 3,4,5-trihydroxybenzoic acid]", "values": [
      {"measurement": "microbial count after exposure to UV light", "setting": "E. coli BL-21", "value": "undetectable"}
    ]},
    {"compound": "O=C(CO)[C@@H](O)[C@H](O)[C@H](O)CO", "note": "[fructose]", "values": [
      {"measurement": "fluorescence decay rate constant", "setting": "[2]; 10 mM fructose", "value": "0.16 ± 0.01", "unit": "min⁻¹"},
      {"measurement": "fluorescence decay rate constant", "setting": "[2]; 20 mM fructose", "value": "0.27 ± 0.02", "unit": "min⁻¹"},
      {"measurement": "fluorescence decay rate constant", "setting": "[2]; 100 mM fructose", "value": "0.91 ± 0.02", "unit": "min⁻¹"},
      {"measurement": "fluorescence decay rate constant", "setting": "[2]; 300 mM fructose", "value": "2.1 ± 0.06", "unit": "min⁻¹"},
      {"measurement": "fluorescence decay rate constant", "setting": "[2]; 500 mM fructose", "value": "2.4 ± 0.13", "unit": "min⁻¹"},
      {"measurement": "fluorescence lost", "setting": "[2]; 500 mM fructose, within 2 minutes of UV exposure, FIG. 10A", "value": "more than 90%"},
      {"measurement": "average absorbance at 254 nm", "setting": "[3]; 500 mM solution", "value": 0.12},
      {"measurement": "UV induced rate of degradation of patulin", "setting": "[4]", "value": "increased"}
    ]},
    {"compound": "c1ccoc1", "note": "[furan, reference compound]", "values": [
      {"measurement": "change in relative fluorescence intensity", "setting": "[2]; 33 μM furan", "value": "< 20", "unit": "%"},
      {"measurement": "change in relative fluorescence intensity", "setting": "[2]; 66 μM furan", "value": "< 20", "unit": "%"},
      {"measurement": "average absorbance at 254 nm", "setting": "[3]; 132 μM", "value": "less than 0.001"}
    ]}
  ]
}
